From patent US6620833B1, “Substituted benzimidazoles, production and use thereof as agents for combating parasitic protozoas” (Bayer Aktiengesellschaft, priority 1998, dated 2003)

What was measured:
Assay type in all cases: in vivo
Eimeria tenella = assay: Cage experiment on coccidiosis/chicks, E. tenella readout
[1] = tested on: Eimeria acervulina, Eimeria maxima and Eimeria tenella; assay: Cage experiment on coccidiosis/chicks, mixed experimental infection; settings: for dropping scores / lesion score: assessment 0 to 6; for mortality n: dead animals/animals employed
Method: 8 to 12 day-old male chicks (e.g. LSL Brinkschulte/Senden) which have been reared coccidia-free receive the compounds according to the invention (test substances) in the concentration indicated in ppm with the feed from 3 days before (day −3) infection (=a.i.) until 8 (9) days after infection (=p.i.). 3 animals are kept in each cage. One or more groups of this type are employed per dose. Infection is carried out by means of a stomach tube directly into the crop with approximately 100,000 sporulated oocysts of Eimeria acervulina and with approximately 30,000 oocysts each of E. maxima and 40,000 sporulated oocysts of E. tenella. These are highly virulent strains. The exact infection dose is adjusted so that, if possible, one of three experimentally infected untreated chicks dies due to the infection. For assessment of the efficacy, the following criteria are taken into account: weight increase from the start of the experiment to the end of the experiment, death rate due to infection, macroscopic assessment of the faeces with respect to diarrhoea and excretion of blood on days 5 and 7 p.i. (assessment 0 to 6), macroscopic assessment of the intestinal mucosa, in particular of the appendices (assessment 0 to 6) and the oocyst excretion as well as the proportion (in %) of the oocysts sporulating in the course of 24 hours. The number of oocysts in the faeces was determined with the aid of a McMaster counting chamber (see Engelbrecht and coworkers “Parasitologische Arbeitsmethoden in Medizin and Veterinärmedizin” [Parasitological Working Methods in Medicine and Veterinary Medicine], Akademie-Verlag, Berlin (1965)). The individual findings are related to the untreated non-infected control groups and a total score is calculated (cf. A. Haberkorn (1986), pp. 263 to 270 in Research in Avian Coccidiosis ed L. R. McDougald, L. P. Joyner, P. L. Long, Proceedings of the Georgia Coccidiosis Conference, Nov. 18-20, 1985. Athens/Georgia USA).
In the column “ppm”, the concentration of the active compound employed in the feed is indicated in ppm.
In the column “mortality” the percentage of the dead animals is indicated under % and the number of dead animals/animals employed in the experiment is indicated under n.
In the column “weight % of not inf. control” the ratio of the weight of the treated animals to the weight of the non-infected control group is indicated.
In the columns “dropping scores”, “lesion score” and “oocyst control”, individual details of the action are given.
In the column “% efficacy”, the total score is assessed; 0% means no action, 100% means full action.

Eimeria maxima = assay: Cage experiment on coccidiosis/chicks, E. maxima readout
Eimeria acervulina = assay: Cage experiment on coccidiosis/chicks, E. acervulina readout

CO[C@@H]1[C@@H](OC)[C@H](C)[C@@](O)(CC(=O)O)O[C@H]1[C@H](C)[C@H]1O[C@@]2(CC[C@@](C)([C@H]3CC[C@@](C)([C@@H]4O[C@@H]([C@H]5O[C@](C)(O)[C@H](C)C[C@@H]5C)C[C@@H]4O[C@@H]4C[C@H](OC)[C@@H](OC)[C@H](C)O4)O3)O2)C[C@H](O)[C@H]1C [MAD, Maduramicin, reference compound]
oocyst in % of inf. control ten. (Eimeria tenella; Table 2, 1 ppm in feed): 30%
oocyst in % of inf. control ten. (Eimeria tenella; Table 2, 2 ppm in feed): 45%
oocyst in % of inf. control ten. (Eimeria tenella; Table 2, 3 ppm in feed): 3%
% efficacy tot. ([1]; Table 2, 1 ppm in feed): 73%
mortality % ([1]; Table 2, 1 ppm in feed): 0%
oocyst in % of inf. control tot. ([1]; Table 2, 1 ppm in feed): 46%
weight % of not inf. control ([1]; Table 2, 1 ppm in feed): 93%
dropping scores ([1]; Table 2, 1 ppm in feed): 1
lesion score ([1]; Table 2, 1 ppm in feed): 2
mortality n ([1]; Table 2, 1 ppm in feed): 0/3
% efficacy tot. ([1]; Table 2, 2 ppm in feed): 84%
mortality % ([1]; Table 2, 2 ppm in feed): 0%
oocyst in % of inf. control tot. ([1]; Table 2, 2 ppm in feed): 51%
weight % of not inf. control ([1]; Table 2, 2 ppm in feed): 114%
dropping scores ([1]; Table 2, 2 ppm in feed): 0
lesion score ([1]; Table 2, 2 ppm in feed): 2
mortality n ([1]; Table 2, 2 ppm in feed): 0/3
% efficacy tot. ([1]; Table 2, 3 ppm in feed): 100%
mortality % ([1]; Table 2, 3 ppm in feed): 0%
oocyst in % of inf. control tot. ([1]; Table 2, 3 ppm in feed): 1.3%
weight % of not inf. control ([1]; Table 2, 3 ppm in feed): 112%
dropping scores ([1]; Table 2, 3 ppm in feed): 0
lesion score ([1]; Table 2, 3 ppm in feed): 0
mortality n ([1]; Table 2, 3 ppm in feed): 0/3
oocyst in % of inf. control max. (Eimeria maxima; Table 2, 1 ppm in feed): 100%
oocyst in % of inf. control max. (Eimeria maxima; Table 2, 2 ppm in feed): 100%
oocyst in % of inf. control max. (Eimeria maxima; Table 2, 3 ppm in feed): 0%
oocyst in % of inf. control ac. (Eimeria acervulina; Table 2, 1 ppm in feed): 8%
oocyst in % of inf. control ac. (Eimeria acervulina; Table 2, 2 ppm in feed): 8%
oocyst in % of inf. control ac. (Eimeria acervulina; Table 2, 3 ppm in feed): 1%

CC[C@@]1([C@@H]2O[C@@H]([C@H]3O[C@@](O)(CO)[C@H](C)C[C@@H]3C)C[C@@H]2C)CC[C@H]([C@]2(C)CC[C@]3(C[C@H](O)[C@@H](C)[C@@H]([C@@H](C)[C@@H](OC)[C@H](C)C(=O)O)O3)O2)O1 [Mon., Monensin, reference compound]
oocyst in % of inf. control ten. (Eimeria tenella; Table 1, 25 ppm in feed): 100%
oocyst in % of inf. control ten. (Eimeria tenella; Table 1, 50 ppm in feed): 13%
oocyst in % of inf. control ten. (Eimeria tenella; Table 1, 100 ppm in feed): 100%
% efficacy tot. ([1]; Table 1, 25 ppm in feed): 45%
mortality % ([1]; Table 1, 25 ppm in feed): 33%
oocyst in % of inf. control tot. ([1]; Table 1, 25 ppm in feed): 66%
weight % of not inf. control ([1]; Table 1, 25 ppm in feed): 36%
dropping scores ([1]; Table 1, 25 ppm in feed): 6
lesion score ([1]; Table 1, 25 ppm in feed): 6
mortality n ([1]; Table 1, 25 ppm in feed): 1/3
% efficacy tot. ([1]; Table 1, 50 ppm in feed): 36%
mortality % ([1]; Table 1, 50 ppm in feed): 33%
oocyst in % of inf. control tot. ([1]; Table 1, 50 ppm in feed): 19%
weight % of not inf. control ([1]; Table 1, 50 ppm in feed): 81%
dropping scores ([1]; Table 1, 50 ppm in feed): 6
lesion score ([1]; Table 1, 50 ppm in feed): 6
mortality n ([1]; Table 1, 50 ppm in feed): 1/3
% efficacy tot. ([1]; Table 1, 100 ppm in feed): 24%
mortality % ([1]; Table 1, 100 ppm in feed): 33%
oocyst in % of inf. control tot. ([1]; Table 1, 100 ppm in feed): 36%
weight % of not inf. control ([1]; Table 1, 100 ppm in feed): 30%
dropping scores ([1]; Table 1, 100 ppm in feed): 6
lesion score ([1]; Table 1, 100 ppm in feed): 6
mortality n ([1]; Table 1, 100 ppm in feed): 1/3
oocyst in % of inf. control max. (Eimeria maxima; Table 1, 25 ppm in feed): 0%
oocyst in % of inf. control max. (Eimeria maxima; Table 1, 50 ppm in feed): 0%
oocyst in % of inf. control max. (Eimeria maxima; Table 1, 100 ppm in feed): 0%
oocyst in % of inf. control ac. (Eimeria acervulina; Table 1, 25 ppm in feed): 98%
oocyst in % of inf. control ac. (Eimeria acervulina; Table 1, 50 ppm in feed): 44%
oocyst in % of inf. control ac. (Eimeria acervulina; Table 1, 100 ppm in feed): 8%

CC[C@@H](C(=O)[C@@H](C)[C@@H](O)[C@H](C)[C@@H]1O[C@@H]([C@@H](CC)C(=O)O)CC[C@@H]1C)[C@H]1O[C@]2(C=C[C@@H](O)[C@]3(CC[C@@](C)([C@H]4CC[C@](O)(CC)[C@H](C)O4)O3)O2)[C@H](C)C[C@@H]1C [Sal., Salinomycin, reference compound]
oocyst in % of inf. control ten. (Eimeria tenella; Table 3, 60 ppm in feed): 31%
mortality % ([1]; Table 3, 15 ppm in feed): 100%
mortality n ([1]; Table 3, 15 ppm in feed): 3/3
mortality % ([1]; Table 3, 30 ppm in feed): 100%
mortality n ([1]; Table 3, 30 ppm in feed): 3/3
% efficacy tot. ([1]; Table 3, 60 ppm in feed): 67%
mortality % ([1]; Table 3, 60 ppm in feed): 0%
oocyst in % of inf. control tot. ([1]; Table 3, 60 ppm in feed): 12%
weight % of not inf. control ([1]; Table 3, 60 ppm in feed): 106%
dropping scores ([1]; Table 3, 60 ppm in feed): 6
lesion score ([1]; Table 3, 60 ppm in feed): 1.3
mortality n ([1]; Table 3, 60 ppm in feed): 0/3
oocyst in % of inf. control max. (Eimeria maxima; Table 3, 60 ppm in feed): 0%
oocyst in % of inf. control ac. (Eimeria acervulina; Table 3, 60 ppm in feed): 6%
